According to patent US9011863B2, “Combinations of kinase inhibitors for the treatment of cancer” (Exelixis, Inc., priority 2010, dated 2015):

What was measured:
HER3 mRNA [1] = settings: ovarian cancer cells; cited from earlier work
BT474 xenografts = assay: BT474 xenograft experiments; type: in vivo, mice; settings: trastuzumab 30 mg/kg twice-a-week i.p.; lapatinib 100 mg/kg daily; compound A 100 mg/kg daily gavage; 28 days
Experimental: Tumor volumes were recorded twice-a-week. Each data point represents the mean tumor volume in mm^3±SE of 8 mice per type of treatment. CR=complete response to treatment.
Animal experiments were approved by the Institutional Animal Care Committee of Vanderbilt University Medical Center (VUMC). Mice were housed in the accredited Animal Care Facility of the VUMC. A 17β-estradiol pellet (Innovative Research of America) was injected subcutaneously (s.c.) into each 6- to 7-week-old athymic female mice (Harlan Sprague Dawley, Inc.) the day before tumor cell injection. BT474 cells (3×10^6) mixed 1:1 with Matrigel (BD Biosciences) were injected s.c. into the right flank of each mouse. Tumor diameters were measured with calipers twice-a-week and volume in mm^3 calculated with the formula: volume=width^2×length/2. […] Mice were euthanized after 28 days of treatment.
There was no significant drug-related toxicity in any of the treatment arms.

[2] = test system: HER3, pHER3^Y1289, pAKT^S473; assay: immunohistochemistry of BT474 xenografts; type: in vivo, mice; settings: day 28
Experimental: FIG. 18B depicts photomicrographs of immunohistochemistry sections from formalin-fixed, paraffin-embedded tumor blocks. Xenografts were harvested on day 28, 1 hour after the last dose of lapatinib and/or compound A. Antibodies used were against HER3, pHER3^Y1289, and pAKT^S473. Photographs were taken at 400× magnification (scale bar: 50 μm).
All tumor samples (collected within 1 hour of last treatment) were fixed in 10% neutral buffered formalin for 24 hours at room temperature, followed by dehydration and paraffin embedding. Immunostaining was done on 5-μm tissue sections. After deparaffinization in xylene and graded alcohols heat-induced antigen retrieval was performed in a pH 6.0 citrate buffer followed by incubation with 3% hydrogen peroxide for 20 minutes, with protein block (Dako) for 10 minutes, and finally with primary antibody overnight at 4° C. The Envision Visualization System (Dako, Carpinteria, Calif., USA) was used, followed by DAB as chromagen and counterstained with hematoxylin. Tumor sections were studied on a light microscope with an ocular magnification of 400 times. Average percentage and intensity of tumor cell staining was calculated as a histoscore (H-score) (as described in Goulding, H., et al. (1995), Hum. Pathol. 26:291-294, which is incorporated herein by reference in its entirety). An expert pathologist (MGK) scoring the sections was blinded to the type of treatment.
Using immunohistochemistry (IHC), experiments were performed to examine pharmacodynamic biomarkers of target inactivation in xenografts after 28 days of treatment. […] Therefore, experiments were performed to quantify differences in pAKT^S473 expression in both cytoplasmic and nuclear compartments in xenograft sections.

HER3 mRNA [3] = assay: real-time qPCR of HER3 mRNA; type: cell-based, human; settings: for HER3 mRNA/protein or pHER3: data not shown
Experimental: FIG. 12B depicts a bar chart of timed HER3 mRNA transcription in BT474 cells which were treated with 2 μM 5J8, 20 μM LY294002, and 50 nM rapamycin for 10 hours prior to RNA isolation and qPCR analysis with HER3-specific primers.

CS(=O)(=O)N1CCN(Cc2cc3nc(-c4cccc5[nH]ncc45)nc(N4CCOCC4)c3s2)CC1 [GDC-0941]
HER3 mRNA downregulation by heregulin (HER3 mRNA [1]): blocked downregulation of the HER3 mRNA

CS(=O)(=O)CCNCc1ccc(-c2ccc3ncnc(Nc4ccc(OCc5cccc(F)c5)c(Cl)c4)c3c2)o1 [lapatinib, reference compound]
tumor growth, monotherapy (BT474 xenografts): significantly delayed tumor growth
pHER3 by IHC [2]: more effective than trastuzumab in reducing pHER3
HER3 mRNA levels (HER3 mRNA [3]; BT474, compound A 6 μM, lapatinib 1 μM, trastuzumab 10 μg/ml, 10 hours): markedly induced HER3 mRNA

O=C(NOCC1CC1)c1ccc(F)c(F)c1Nc1ccc(I)cc1Cl [CI-1040]
HER3 mRNA/protein or pHER3 (HER3 mRNA [3]): did not upregulate HER3 mRNA/protein or pHER3

CO[C@H]1C[C@@H]2CC[C@@H](C)[C@@](O)(O2)C(=O)C(=O)N2CCCC[C@H]2C(=O)O[C@H]([C@H](C)C[C@@H]2CC[C@@H](OCCO)[C@H](OC)C2)CC(=O)[C@H](C)/C=C(\C)[C@@H](O)[C@@H](OC)C(=O)[C@H](C)C[C@H](C)/C=C/C=C/C=C/1C [RAD001, everolimus]
HER3 mRNA/protein or pHER3 (HER3 mRNA [3]): did not upregulate HER3 mRNA/protein or pHER3
